Our source for the mass density and refractive index values is the NIST ThermoML archive (doi:10.1016/j.fluid.2013.10.034).

± gives the expanded uncertainty stated by the source.

For data set [1] the following is noted: 298.15 K; 101.33 kPa; Liquid; Vibrating tube method.
The nature of data set [2]: refractive index (Na D-line) (dimensionless). The conditions noted are these: 298.15 K; 101.33 kPa; Liquid; Standard Abbe refractometry.

The mass density is the mass of a sample divided by its volume. Usually refractive index stands for a measure of how strongly the sample bends light. Turning to `CC(=O)CC(C)C` [4-methylpentan-2-one], the mass density in data set [1] was 795.94 ± 0.14 kg/m3. The refractive index in data set [2] stood at 1.3936 ± 0.0005.

On to `CCCO` [propan-1-ol], for which the mass density in data set [1] turned out to be 799.62 ± 0.11 kg/m3. Also, the refractive index in data set [2] stood at 1.3836 ± 0.0005.

For the molecule `CC(C)O` [propan-2-ol], the mass density in data set [1] turned out to be 782.7 ± 0.15 kg/m3. For the same molecule, in data set [2], the refractive index turned out to be 1.3754 ± 0.0005.

With `O` [water], in data set [2], the refractive index is listed as 1.3325 ± 0.0005.
